For 14 molecules, solubility results are on record in the OPERA property sets (Mansouri et al. 2018).

≈ marks a conversion by molar mass, not a printed value.

As a reminder, the solubility is the concentration that dissolves in the medium under given conditions. The low end stands for little dissolved substance, the high end for much dissolved substance.

For the data set the following is noted: 25 °C.

In turn, `CCC(C)(C)Cl` registered a solubility of 3.09 mM (≈ 329 µg/mL). The figure for `CCNc1ccccc1` is 19.9 mM (≈ 2410 µg/mL); for `CCCCCCl` it is 1.85 mM (≈ 197 µg/mL). The figure for `Brc1cccc(Br)c1Br` is 0.00912 mM (≈ 2.87 µg/mL). As for `COC(=O)c1ccc(C(=O)OC)cc1`, the solubility is 0.0978 mM (≈ 19 µg/mL). The figure for `CC(O)CNCC(C)O` (centres undefined) is 6490 mM (≈ 865000 µg/mL); for `Cc1cc(O)ccc1Cl` it is 26.9 mM (≈ 3830 µg/mL); for `Nc1cccc(C(F)(F)F)c1` it is 33.9 mM (≈ 5450 µg/mL). The figure for `CCCCC(=O)OC` is 43.6 mM (≈ 5060 µg/mL); for `c1ccc(NNc2ccccc2)cc1` it is 1.2 mM (≈ 221 µg/mL).

In turn, `CCCOC(=O)c1ccccc1` registered a solubility of 2.14 mM (≈ 351 µg/mL). The figure for `CCCNCCC` is 579 mM (≈ 58600 µg/mL); for `CCCCCCCl` it is 0.754 mM (≈ 91 µg/mL). The figure for `Brc1ccc2ccccc2c1` is 0.0398 mM (≈ 8.24 µg/mL).
